Measured values from patent US8134007B2, “Pyridine derivatives” (Pfizer Inc., priority 2007, dated 2012).

Assays:
Assay type in all cases: cell-based
Human Nav1.8 = target: T1, Human Nav1.8 (Homo sapiens, UniProt Q9Y5Y9); assay: VIPR Assay for Nav1.8 Compounds (FRET membrane potential, deltamethrin opener); settings: VIPR FRET membrane potential assay, deltamethrin opener; average of replicates; read-out: Nav1.8 IC50
T1 construct: expressed in transfected cells; host or cells: HEK293

Human Nav1.5 = target: T2, Human Nav1.5 (Homo sapiens, UniProt Q14524); assay: Nav1.5 Assay (VIPR, HEK293 cells); settings: HEK293 cells expressing Human Nav1.5; average of replicates; read-out: Nav1.5 IC50
T2 construct: expressed in transfected cells; host or cells: HEK293
Description: The Nav1.5 assay is performed in HEK293 cells expressing Human Nav1.5 in the same way as the Nav1.8 assay.
Where replicate experiments were conducted resulting in multiple sets of data for a test compound, the data presented represent the average value from all replicate experiments.

[1] = tested on: tetrodotoxin-sensitive voltage-gated sodium channels including NaV1.2, NaV1.3 and NaV1.7; assay: TTX-S Assay (VIPR, SHSY-5Y cell line, veratridine opener); settings: read-out: TTX-S IC50, veratridine 50 μM opener, average of replicates

T1 sequence (Q9Y5Y9 whole entry): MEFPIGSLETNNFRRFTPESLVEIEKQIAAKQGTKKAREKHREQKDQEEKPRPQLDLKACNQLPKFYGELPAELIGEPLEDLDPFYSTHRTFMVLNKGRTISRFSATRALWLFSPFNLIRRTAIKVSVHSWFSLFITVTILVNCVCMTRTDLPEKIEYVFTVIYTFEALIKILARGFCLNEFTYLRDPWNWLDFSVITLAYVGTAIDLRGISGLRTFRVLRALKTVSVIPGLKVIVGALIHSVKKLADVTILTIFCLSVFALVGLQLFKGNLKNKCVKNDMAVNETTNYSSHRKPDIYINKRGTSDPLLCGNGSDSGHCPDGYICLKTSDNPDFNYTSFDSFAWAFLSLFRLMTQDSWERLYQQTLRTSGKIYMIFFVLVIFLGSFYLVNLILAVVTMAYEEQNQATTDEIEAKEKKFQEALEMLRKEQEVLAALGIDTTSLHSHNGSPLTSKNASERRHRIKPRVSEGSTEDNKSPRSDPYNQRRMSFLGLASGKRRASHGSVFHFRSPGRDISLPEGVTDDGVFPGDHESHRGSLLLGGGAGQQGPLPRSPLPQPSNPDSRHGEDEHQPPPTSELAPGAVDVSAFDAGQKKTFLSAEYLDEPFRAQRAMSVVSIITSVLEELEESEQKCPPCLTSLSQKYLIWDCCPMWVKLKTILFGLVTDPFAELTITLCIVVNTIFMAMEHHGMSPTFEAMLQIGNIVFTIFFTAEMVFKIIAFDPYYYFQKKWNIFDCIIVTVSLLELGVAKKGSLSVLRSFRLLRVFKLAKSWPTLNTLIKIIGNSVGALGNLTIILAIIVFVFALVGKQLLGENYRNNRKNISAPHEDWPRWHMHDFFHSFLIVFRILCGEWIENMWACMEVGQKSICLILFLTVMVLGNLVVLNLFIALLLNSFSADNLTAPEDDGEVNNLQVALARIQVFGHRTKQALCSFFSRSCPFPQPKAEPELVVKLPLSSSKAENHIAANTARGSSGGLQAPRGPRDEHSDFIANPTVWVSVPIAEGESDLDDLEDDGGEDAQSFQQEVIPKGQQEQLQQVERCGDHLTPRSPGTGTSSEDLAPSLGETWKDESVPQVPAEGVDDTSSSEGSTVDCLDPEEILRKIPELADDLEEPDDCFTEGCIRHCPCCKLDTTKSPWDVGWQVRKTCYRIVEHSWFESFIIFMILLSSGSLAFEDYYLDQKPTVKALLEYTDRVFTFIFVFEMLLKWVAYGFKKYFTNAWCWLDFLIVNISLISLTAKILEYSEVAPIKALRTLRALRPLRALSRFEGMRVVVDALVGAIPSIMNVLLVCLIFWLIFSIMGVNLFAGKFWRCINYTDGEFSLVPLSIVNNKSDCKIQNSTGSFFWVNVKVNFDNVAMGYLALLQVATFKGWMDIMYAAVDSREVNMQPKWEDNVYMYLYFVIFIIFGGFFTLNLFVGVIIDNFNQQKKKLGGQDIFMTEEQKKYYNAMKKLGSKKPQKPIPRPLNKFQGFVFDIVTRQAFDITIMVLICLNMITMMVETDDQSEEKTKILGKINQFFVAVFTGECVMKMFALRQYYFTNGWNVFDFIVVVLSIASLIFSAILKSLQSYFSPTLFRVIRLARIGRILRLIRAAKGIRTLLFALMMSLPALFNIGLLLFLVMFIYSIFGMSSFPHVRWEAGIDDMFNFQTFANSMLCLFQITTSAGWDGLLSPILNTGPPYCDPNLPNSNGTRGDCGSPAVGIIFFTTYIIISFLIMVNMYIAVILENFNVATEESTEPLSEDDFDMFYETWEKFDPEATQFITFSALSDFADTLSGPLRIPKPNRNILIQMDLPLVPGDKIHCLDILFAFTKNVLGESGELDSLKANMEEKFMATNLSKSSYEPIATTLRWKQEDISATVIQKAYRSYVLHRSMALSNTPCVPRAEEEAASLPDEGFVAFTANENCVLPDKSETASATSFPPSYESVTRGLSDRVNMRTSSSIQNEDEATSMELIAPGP
T2 sequence (Q14524 whole entry): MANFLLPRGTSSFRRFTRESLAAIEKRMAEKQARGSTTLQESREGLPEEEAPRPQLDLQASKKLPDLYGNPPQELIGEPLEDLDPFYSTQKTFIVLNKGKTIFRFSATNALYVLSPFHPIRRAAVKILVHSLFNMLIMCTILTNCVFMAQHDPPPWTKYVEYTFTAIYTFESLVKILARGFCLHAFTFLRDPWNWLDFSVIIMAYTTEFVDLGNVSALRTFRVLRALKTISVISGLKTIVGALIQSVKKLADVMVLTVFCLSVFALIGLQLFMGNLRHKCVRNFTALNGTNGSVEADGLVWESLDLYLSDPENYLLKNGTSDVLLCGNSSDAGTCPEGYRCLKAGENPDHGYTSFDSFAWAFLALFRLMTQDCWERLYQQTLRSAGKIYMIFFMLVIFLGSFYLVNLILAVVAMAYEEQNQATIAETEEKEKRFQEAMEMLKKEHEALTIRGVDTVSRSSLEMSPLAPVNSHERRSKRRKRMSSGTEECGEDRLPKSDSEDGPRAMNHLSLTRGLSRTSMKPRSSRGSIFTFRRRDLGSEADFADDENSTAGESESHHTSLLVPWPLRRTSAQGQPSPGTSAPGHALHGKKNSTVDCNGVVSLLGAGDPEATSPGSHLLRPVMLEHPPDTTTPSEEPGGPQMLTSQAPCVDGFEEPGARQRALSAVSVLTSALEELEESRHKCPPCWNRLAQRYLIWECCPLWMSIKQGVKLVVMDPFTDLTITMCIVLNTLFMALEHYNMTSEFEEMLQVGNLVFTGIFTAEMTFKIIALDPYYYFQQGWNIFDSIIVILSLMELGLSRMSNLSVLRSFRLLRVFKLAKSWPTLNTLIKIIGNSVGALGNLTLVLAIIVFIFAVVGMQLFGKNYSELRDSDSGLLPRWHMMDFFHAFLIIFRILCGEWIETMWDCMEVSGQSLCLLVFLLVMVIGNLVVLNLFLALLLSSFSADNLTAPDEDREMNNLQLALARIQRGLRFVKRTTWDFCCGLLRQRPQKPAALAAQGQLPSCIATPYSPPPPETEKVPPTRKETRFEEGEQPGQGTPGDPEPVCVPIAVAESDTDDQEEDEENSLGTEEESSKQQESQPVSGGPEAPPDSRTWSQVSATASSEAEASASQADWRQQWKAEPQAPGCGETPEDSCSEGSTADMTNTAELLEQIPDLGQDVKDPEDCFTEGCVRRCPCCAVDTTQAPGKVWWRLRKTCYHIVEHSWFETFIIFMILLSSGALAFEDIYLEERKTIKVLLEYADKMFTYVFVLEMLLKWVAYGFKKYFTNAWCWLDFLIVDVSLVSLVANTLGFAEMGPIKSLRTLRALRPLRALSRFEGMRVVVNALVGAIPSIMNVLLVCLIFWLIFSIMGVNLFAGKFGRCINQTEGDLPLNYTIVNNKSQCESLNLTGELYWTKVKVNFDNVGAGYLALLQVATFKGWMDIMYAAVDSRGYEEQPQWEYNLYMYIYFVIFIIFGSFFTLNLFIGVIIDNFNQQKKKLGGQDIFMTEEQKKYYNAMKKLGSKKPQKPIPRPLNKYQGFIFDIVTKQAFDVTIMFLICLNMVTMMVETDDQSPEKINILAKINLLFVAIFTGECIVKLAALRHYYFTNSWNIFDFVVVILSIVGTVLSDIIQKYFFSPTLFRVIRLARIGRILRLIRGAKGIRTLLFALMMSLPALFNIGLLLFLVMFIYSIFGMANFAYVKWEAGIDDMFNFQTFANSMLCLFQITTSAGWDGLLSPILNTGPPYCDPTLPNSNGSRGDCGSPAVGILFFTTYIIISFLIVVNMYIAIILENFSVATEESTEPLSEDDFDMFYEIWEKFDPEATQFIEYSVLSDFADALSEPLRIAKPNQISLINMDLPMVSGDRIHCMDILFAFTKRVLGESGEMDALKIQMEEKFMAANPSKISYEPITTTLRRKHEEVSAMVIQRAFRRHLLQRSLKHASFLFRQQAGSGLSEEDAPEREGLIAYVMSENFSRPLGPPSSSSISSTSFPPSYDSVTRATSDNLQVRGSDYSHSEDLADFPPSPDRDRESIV

Cc1nocc1C(=O)Nc1ccc(-c2ccccc2C(F)F)c(N)n1 [Example 42, N-[6-Amino-5-[2-(difluoromethyl)phenyl]pyridin-2-yl]-3-methylisoxazole-4-carboxamide]
IC50 (Human Nav1.8): 2.5 µM | IC50 (Human Nav1.5): > 32 µM | IC50 [1]: 22 µM

Cc1nocc1C(=O)Nc1ccc(-c2cc(F)ccc2OC(F)(F)F)c(N)n1 [Example 115]
IC50 (Human Nav1.8): 0.28 µM | IC50 (Human Nav1.5): 7.9 µM | IC50 [1]: 5.3 µM

COc1ccc(Cl)c(-c2ccc(NC(=O)c3cnnn3C)nc2N)c1 [Example 83, N-[6-Amino-5-(2-chloro-5-methoxyphenyl)pyridin-2-yl]-1-methyl-1H-1,2,3-triazole-5-carboxamide]
IC50 (Human Nav1.8): 3.3 µM | IC50 (Human Nav1.5): 4.1 µM | IC50 [1]: 12 µM

CCn1nccc1C(=O)Nc1ccc(-c2cc(Cl)ccc2Cl)c(N)n1 [Example 56, N-[6-Amino-5-(2,5-dichlorophenyl)pyridin-2-yl]-1-ethyl-1H-pyrazole-5-carboxamide]
IC50 (Human Nav1.8): 2.4 µM | IC50 (Human Nav1.5): 17 µM | IC50 [1]: 8.1 µM

Cc1oncc1C(=O)Nc1ccc(-c2ccccc2OC(F)(F)F)c(N)n1 [Example 23, N-{6-Amino-5-[2-(trifluoromethoxy)phenyl]pyridin-2-yl}-5-methylisoxazole-4-carboxamide]
IC50 (Human Nav1.8): 1.6 µM | IC50 (Human Nav1.5): 17 µM | IC50 [1]: 9.4 µM

Cc1nocc1C(=O)Nc1ccc(-c2cc(Cl)cc3c2OCCO3)c(N)n1 [Example 30, N-[6-Amino-5-(7-chloro-2,3-dihydro-1,4-benzodioxin-5-yl)pyridin-2-yl]-3-methylisoxazole-4-carboxamide]
IC50 (Human Nav1.8): 1.3 µM | IC50 (Human Nav1.5): 16 µM | IC50 [1]: 28 µM

CCn1nccc1C(=O)Nc1ccc(-c2cc(OC(F)(F)F)ccc2Cl)c(N)n1 [Example 65, N-{6-Amino-5-[2-chloro-5-(trifluoromethoxy)phenyl]pyridin-2-yl}-1-ethyl-1H-pyrazole-5-carboxamide]
IC50 (Human Nav1.8): 5.3 µM | IC50 (Human Nav1.5): 12 µM | IC50 [1]: 3.2 µM

Cc1oncc1C(=O)Nc1ccc(-c2cc(Cl)ccc2Cl)c(N)n1 [Example 21, N-[6-Amino-5-(2,5-dichlorophenyl)pyridin-2-yl]-5-methylisoxazole-4-carboxamide]
IC50 (Human Nav1.8): 23 µM | IC50 [1]: 27 µM

Cc1nonc1C(=O)Nc1ccc(-c2cc(Cl)ccc2Cl)c(N)n1 [Example 44, N-[6-Amino-5-(2,5-dichlorophenyl)pyridin-2-yl]-4-methyl-1,2,5-oxadiazole-3-carboxamide]
IC50 (Human Nav1.8): 3.2 µM | IC50 [1]: 8.1 µM

Cc1nocc1C(=O)Nc1ccc(-c2cc(Cl)ccc2Cl)c(N)n1 [Example 25, N-[6-Amino-5-(2,5-dichlorophenyl)pyridin-2-yl]-3-methylisoxazole-4-carboxamide]
IC50 (Human Nav1.8): 1.6 µM | IC50 [1]: 10 µM

Nc1nc(NC(=O)c2ccon2)ccc1-c1cc(Cl)ccc1Cl [Example 72, N-[6-Amino-5-(2,5-dichlorophenyl)pyridin-2-yl]isoxazole-3-carboxamide]
IC50 (Human Nav1.8): 8.6 µM | IC50 [1]: 15 µM

Nc1nc(NC(=O)c2ccc(Cl)cc2)ccc1-c1cc(Cl)ccc1Cl [Example 100]
IC50 (Human Nav1.8): 6.3 µM | IC50 [1]: 4.4 µM

Nc1nc(NC(=O)c2ccon2)ccc1-c1ccccc1Cl [Example 74, N-[6-Amino-5-(2-chlorophenyl)pyridin-2-yl]isoxazole-3-carboxamide]
IC50 (Human Nav1.8): 4.2 µM | IC50 [1]: 30 µM

Nc1nc(NC(=O)c2ccccc2Cl)ccc1-c1cc(Cl)ccc1Cl [Example 101]
IC50 (Human Nav1.8): 3.7 µM | IC50 [1]: 6.2 µM

Nc1nc(NC(=O)c2ccno2)ccc1-c1cc(Cl)ccc1Cl [Example 75, N-[6-Amino-5-(2,5-dichlorophenyl)pyridin-2-yl]isoxazole-5-carboxamide]
IC50 (Human Nav1.8): 1.4 µM | IC50 [1]: 24 µM

COc1cc(Cl)cc(-c2ccc(NC(=O)c3nonc3C)nc2N)c1Cl [Example 51, N-[6-Amino-5-(2,5-dichloro-3-methoxyphenyl)pyridin-2-yl]-4-methyl-1,2,5-oxadiazole-3-carboxamide]
IC50 (Human Nav1.8): 2.6 µM | IC50 [1]: 4.5 µM
